Assay results published in US9708314B2, “Heterocyclic amide compound” (NISSAN CHEMICAL INDUSTRIES, LTD., priority 2013, dated 2017).

How the values were obtained:
Experiment in all cases: Test Example 2: herbicidal activity, application during weed generation in submerged conditions
Type in all cases: in vivo
Conditions in all cases: Eighteenth Table; application herbicide amount 320 g/ha
[1] = test system: Monochoria vaginalis
Excerpt: (§1) 5 Herbicidal ratio of 90% or more (almost completely withered) 4 Herbicidal ratio of 70% or more and less than 90% 3 Herbicidal ratio of 40% or more and less than 70% 2 Herbicidal ratio of 20% or more and less than 40% 1 Herbicidal ratio of 5% or more and less than 20% 0 Herbicidal ratio of 5% or less (almost no effect) [Test Example 2] Herbicidal Activity Test by Application During Weed Generation in Submerged Conditions After alluvial soil was placed into 1/10000 are of Wagner pot, water was poured and mixed to form a submerged condition having a water depth of 4 cm. Seeds of Echinochloa oryzacola Vasing., Scirpus juncoides, and Monochoria vaginalis were sowed in a mixed manner in the above pot and the pot was placed in the greenhouse of 25° C. to 30° C. to grow the plants. When Echinochloa oryzacola Vasing., Scirpus juncoides, and Monochoria vaginalis were grown to one leaf stage to two leaf stage, the emulsion agent containing the compound of the present invention prepared in accordance with Formulation Example 2 was diluted with water so as to be a predetermined herbicide amount and the diluted compound was applied to the surface of the water. Three weeks after the herbicide application, effects on each plant were investigated in accordance with the criteria of Test Example 1. A: Echinochloa oryzicola Vasing., B: Scirpus juncoides, C: Monochoria vaginalis, D: Leptochloa chinensis, E: Cyperus difformis, F: Digitaria ciliaris, G: Setaria viridis, H: Echinochloa crus-galli var. crus-galli, I: Avena fatua, J: Alopecurus myosuroides, K: Lolium multiflorum Lam., L: Apera spica-venti., M: Abutilon theophrasti, N: Amaranthus retroflexus, O: Chenopodium album, P: Stellaria media, Q: Galium spurium, R: Veronica persica, a: transplanted Oryza sativa, b: directly sowed Oryza sativa, c: Zea mays, d: Glycine max, e: Triticum aestivum, f: Beta vulgaris ssp. vulgaris, and g: Brassica campestris L. The application herbicide amount (g/ha) means an amount that a concentration is adjusted so that, when an application amount is converted into per hectare (1 ha), the herbicide is applied by the number of grams (g) of the described value.

[2] = test system: Echinochloa oryzacola Vasing.
Excerpt: as §1

[3] = test system: Scirpus juncoides
Excerpt: as §1

SMILES | C (Monochoria vaginalis) herbicidal ratio grade [1] | A (Echinochloa oryzicola Vasing.) herbicidal ratio grade [2] | B (Scirpus juncoides) herbicidal ratio grade [3]
Cc1nnc(NC(=O)c2ccc(C(F)(F)F)n3c(-c4ccc(Cl)nc4)nnc23)o1 [1-054] | 3 (Herbicidal ratio of 40% or more and less than 70%) | 4 (Herbicidal ratio of 70% or more and less than 90%) | 3 (Herbicidal ratio of 40% or more and less than 70%)
Cc1nnc(NC(=O)c2ccc(C(F)(F)F)n3c(-c4cccc(Cl)n4)nnc23)o1 [1-055] | 3 (Herbicidal ratio of 40% or more and less than 70%) | 3 (Herbicidal ratio of 40% or more and less than 70%) | 3 (Herbicidal ratio of 40% or more and less than 70%)
Cc1cc(-c2nnc3c(C(=O)Nc4nnc(C)o4)ccc(C(F)(F)F)n23)n(C)n1 [1-056] | 4 (Herbicidal ratio of 70% or more and less than 90%) | 5 (Herbicidal ratio of 90% or more (almost completely withered)) | 4 (Herbicidal ratio of 70% or more and less than 90%)
Cc1nnc(NC(=O)c2ccc(C(F)(F)F)n3c(-c4cccs4)nnc23)o1 [1-057] | 3 (Herbicidal ratio of 40% or more and less than 70%) | 2 (Herbicidal ratio of 20% or more and less than 40%) | 3 (Herbicidal ratio of 40% or more and less than 70%)
Cc1nnc(NC(=O)c2ccc(C(F)(F)F)n3c(-c4cncs4)nnc23)o1 [1-058] | 4 (Herbicidal ratio of 70% or more and less than 90%) | 4 (Herbicidal ratio of 70% or more and less than 90%) | 5 (Herbicidal ratio of 90% or more (almost completely withered))
C#CCSc1nnc2c(C(=O)Nc3nnc(C)o3)ccc(C(F)(F)F)n12 [1-065] | 2 (Herbicidal ratio of 20% or more and less than 40%) | 1 (Herbicidal ratio of 5% or more and less than 20%) | 2 (Herbicidal ratio of 20% or more and less than 40%)
Cc1nnc(NC(=O)c2ccc(C(F)(F)C(F)(F)F)n3c(C(C)C)nnc23)o1 [1-066] | 2 (Herbicidal ratio of 20% or more and less than 40%) | 2 (Herbicidal ratio of 20% or more and less than 40%) | 3 (Herbicidal ratio of 40% or more and less than 70%)
Cc1nnc(NC(=O)c2ccc(C(F)(F)F)n3c(C=O)nnc23)o1 [1-068] | 2 (Herbicidal ratio of 20% or more and less than 40%) | 2 (Herbicidal ratio of 20% or more and less than 40%) | 2 (Herbicidal ratio of 20% or more and less than 40%)
COc1ccc(Cc2nnc3c(C(=O)Nc4nnc(C)o4)ccc(C(F)(F)F)n23)cc1 [1-069] | 4 (Herbicidal ratio of 70% or more and less than 90%) | 4 (Herbicidal ratio of 70% or more and less than 90%) | 4 (Herbicidal ratio of 70% or more and less than 90%)
COc1cc(OC)cc(-c2nnc3c(C(=O)Nc4nnc(C)o4)ccc(C(F)(F)F)n23)c1 [1-070] | 5 (Herbicidal ratio of 90% or more (almost completely withered)) | 5 (Herbicidal ratio of 90% or more (almost completely withered)) | 5 (Herbicidal ratio of 90% or more (almost completely withered))
Cc1nnc(NC(=O)c2ccc(C(F)(F)F)n3c(-c4cc(Cl)cc(Cl)c4)nnc23)o1 [1-071] | 4 (Herbicidal ratio of 70% or more and less than 90%) | 3 (Herbicidal ratio of 40% or more and less than 70%) | 5 (Herbicidal ratio of 90% or more (almost completely withered))
COCC[S+]([O-])c1nnc2c(C(=O)Nc3nnc(C)o3)ccc(C(F)(F)F)n12 (centres unmarked) [1-073] | 1 (Herbicidal ratio of 5% or more and less than 20%) | 2 (Herbicidal ratio of 20% or more and less than 40%) | 2 (Herbicidal ratio of 20% or more and less than 40%)
C=CC[S+]([O-])c1nnc2c(C(=O)Nc3nnc(C)o3)ccc(C(F)(F)F)n12 (centres unmarked) [1-074] | 0 (Herbicidal ratio of 5% or less (almost no effect)) | 2 (Herbicidal ratio of 20% or more and less than 40%) | 0 (Herbicidal ratio of 5% or less (almost no effect))
Cc1nnc(NC(=O)c2ccc(C(F)(F)F)n3c(N(C)C)nnc23)o1 [1-076] | 4 (Herbicidal ratio of 70% or more and less than 90%) | 2 (Herbicidal ratio of 20% or more and less than 40%) | 0 (Herbicidal ratio of 5% or less (almost no effect))
CSC(C)c1nnc2c(C(=O)Nc3nnc(C)o3)ccc(C(F)(F)F)n12 (centres unmarked) [1-078] | 3 (Herbicidal ratio of 40% or more and less than 70%) | 4 (Herbicidal ratio of 70% or more and less than 90%) | 3 (Herbicidal ratio of 40% or more and less than 70%)
Cc1nnc(NC(=O)c2ccc(C(F)(F)F)n3c(C(C)[S+](C)[O-])nnc23)o1 (centres unmarked) [1-079] | 4 (Herbicidal ratio of 70% or more and less than 90%) | 4 (Herbicidal ratio of 70% or more and less than 90%) | 3 (Herbicidal ratio of 40% or more and less than 70%)
Cc1nnc(NC(=O)c2ccc(C(F)(F)F)n3c(C(C)S(C)(=O)=O)nnc23)o1 (centres unmarked) [1-080] | 4 (Herbicidal ratio of 70% or more and less than 90%) | 5 (Herbicidal ratio of 90% or more (almost completely withered)) | 3 (Herbicidal ratio of 40% or more and less than 70%)
CSCCc1nnc2c(C(=O)Nc3nnc(C)o3)ccc(C(F)(F)F)n12 [1-083] | 2 (Herbicidal ratio of 20% or more and less than 40%) | 2 (Herbicidal ratio of 20% or more and less than 40%) | 2 (Herbicidal ratio of 20% or more and less than 40%)
Cc1nnc(NC(=O)c2ccc(C(F)(F)F)n3c(CC[S+](C)[O-])nnc23)o1 (centres unmarked) [1-084] | 0 (Herbicidal ratio of 5% or less (almost no effect)) | 2 (Herbicidal ratio of 20% or more and less than 40%) | 1 (Herbicidal ratio of 5% or more and less than 20%)
Cc1nnc(NC(=O)c2ccc(C(F)(F)F)n3c(CCS(C)(=O)=O)nnc23)o1 [1-085] | 2 (Herbicidal ratio of 20% or more and less than 40%) | 3 (Herbicidal ratio of 40% or more and less than 70%) | 2 (Herbicidal ratio of 20% or more and less than 40%)
Cc1nnc(NC(=O)c2ccc(C(F)(F)F)n3c(N(C)c4ccccc4)nnc23)o1 [1-086] | 4 (Herbicidal ratio of 70% or more and less than 90%) | 4 (Herbicidal ratio of 70% or more and less than 90%) | 4 (Herbicidal ratio of 70% or more and less than 90%)
CCCSc1nnc2c(C(=O)Nc3nnc(C)o3)ccc(C(F)(F)F)n12 [1-087] | 3 (Herbicidal ratio of 40% or more and less than 70%) | 4 (Herbicidal ratio of 70% or more and less than 90%) | 
Cc1nnc(NC(=O)c2ccc(C(F)(F)F)n3c(NC(C)C)nnc23)o1 [1-090] | 3 (Herbicidal ratio of 40% or more and less than 70%) | 2 (Herbicidal ratio of 20% or more and less than 40%) | 1 (Herbicidal ratio of 5% or more and less than 20%)
CC(C)Sc1nnc2c(C(=O)Nc3nnco3)ccc(C(F)(F)F)n12 [1-091] | 5 (Herbicidal ratio of 90% or more (almost completely withered)) | 5 (Herbicidal ratio of 90% or more (almost completely withered)) | 5 (Herbicidal ratio of 90% or more (almost completely withered))
CCC[S+]([O-])c1nnc2c(C(=O)Nc3nnc(C)o3)ccc(C(F)(F)F)n12 (centres unmarked) [1-092] | 3 (Herbicidal ratio of 40% or more and less than 70%) | 4 (Herbicidal ratio of 70% or more and less than 90%) | 4 (Herbicidal ratio of 70% or more and less than 90%)
